Test results as given in PMC5218480 (PLoS ONE, 2017).

Test system: MV-4-11 cells
Test: Gene expression microarray analysis (Affymetrix PrimeView) and GSEA
Format: cell-based, human
Design: RFU PODN (11730768_x_at) / Fold change /veh PODN (11730768_x_at) / RFU LINC00158 (11744669_a_at) / Fold change /veh LINC00158 (11744669_a_at) / RFU DUSP10 (11751237_a_at) / Fold change /veh DUSP10 (11751237_a_at) / RFU ID3 (11757404_x_at) / Fold change /veh ID3 (11757404_x_at) / RFU PLEKHG5 (11737974_s_at) / Fold change /veh PLEKHG5 (11737974_s_at) / RFU LRRC4B (11730491_at) / Fold change /veh LRRC4B (11730491_at) / RFU GIMAP4 (11747438_a_at) / Fold change /veh GIMAP4 (11747438_a_at) / RFU KRT8 (11758183_x_at) / Fold change /veh KRT8 (11758183_x_at) / RFU CNN1 (11734310_a_at) / Fold change /veh CNN1 (11734310_a_at) / RFU VPS37D (11726825_at) / Fold change /veh VPS37D (11726825_at) / RFU C10orf10 (11716522_x_at) / Fold change /veh C10orf10 (11716522_x_at) / RFU KIR2DL2 /// KIR2DL4 /// KIR2DL5A /// KIR2DL5B /// KIR2DS1 /// KIR2DS2 /// KIR2DS3 /// KIR2DS4 /// KIR3DL3 /// KIR3DL3 /// KIR3DS1 (11738374_at) / Fold change /veh KIR2DL2 /// KIR2DL4 /// KIR2DL5A /// KIR2DL5B /// KIR2DS1 /// KIR2DS2 /// KIR2DS3 /// KIR2DS4 /// KIR3DL3 /// KIR3DL3 /// KIR3DS1 (11738374_at) / RFU C1QL1 (11718748_at) / Fold change /veh C1QL1 (11718748_at) / RFU TMPRSS4 (11747572_a_at) / Fold change /veh TMPRSS4 (11747572_a_at) / RFU HAMP (11756126_x_at) / Fold change /veh HAMP (11756126_x_at) / RFU RNFT2 (11725882_a_at) / Fold change /veh RNFT2 (11725882_a_at) / RFU NR4A2 (11747474_a_at) / Fold change /veh NR4A2 (11747474_a_at) / RFU ABCC12 (11746883_a_at) / Fold change /veh ABCC12 (11746883_a_at) / RFU TMEM136 (11760407_x_at) / Fold change /veh TMEM136 (11760407_x_at) / RFU CLDN22 /// WWC2 (11732394_at) / Fold change /veh CLDN22 /// WWC2 (11732394_at) / RFU HLA-DPB1 (11760878_x_at) / Fold change /veh HLA-DPB1 (11760878_x_at) / RFU SPINT1 (11716480_a_at) / Fold change /veh SPINT1 (11716480_a_at) / RFU GAP43 (11754022_s_at) / Fold change /veh GAP43 (11754022_s_at) / RFU A4GNT (11735810_at) / Fold change /veh A4GNT (11735810_at) / RFU PRB3 (11715151_x_at) / Fold change /veh PRB3 (11715151_x_at) / RFU TUBB4B (11761932_at) / Fold change /veh TUBB4B (11761932_at) / RFU CAPN14 (11732068_a_at) / Fold change /veh CAPN14 (11732068_a_at) / RFU TMCC2 (11721928_a_at) / Fold change /veh TMCC2 (11721928_a_at) / RFU IRGQ (11745062_a_at) / Fold change /veh IRGQ (11745062_a_at) / RFU FAM174B (11720279_a_at) / Fold change /veh FAM174B (11720279_a_at) / RFU TMPRSS4 (11748680_a_at) / Fold change /veh TMPRSS4 (11748680_a_at) / RFU FAM212B (11763350_a_at) / Fold change /veh FAM212B (11763350_a_at) / RFU PLEKHG5 (11743358_a_at) / Fold change /veh PLEKHG5 (11743358_a_at) / RFU ZSCAN30 (11745921_a_at) / Fold change /veh ZSCAN30 (11745921_a_at) / RFU CMKLR1 (11741424_a_at) / Fold change /veh CMKLR1 (11741424_a_at) / RFU LOC101060620 /// MAPK8IP1 (11723275_at) / Fold change /veh LOC101060620 /// MAPK8IP1 (11723275_at) / RFU SPTSSB (11747773_x_at) / Fold change /veh SPTSSB (11747773_x_at) / RFU PRSS12 (11739890_at) / Fold change /veh PRSS12 (11739890_at) / RFU BIN1 (11741810_x_at) / Fold change /veh BIN1 (11741810_x_at) / RFU WNT11 (11732464_a_at) / Fold change /veh WNT11 (11732464_a_at) / RFU C10orf10 (11716521_a_at) / Fold change /veh C10orf10 (11716521_a_at) / RFU C5orf56 (11738089_at) / Fold change /veh C5orf56 (11738089_at) / RFU CYB561 (11721691_x_at) / Fold change /veh CYB561 (11721691_x_at) / RFU ANKRD19P (11752326_a_at) / Fold change /veh ANKRD19P (11752326_a_at) / RFU OR2T12 /// OR2T33 /// OR2T8 (11738714_s_at) / Fold change /veh OR2T12 /// OR2T33 /// OR2T8 (11738714_s_at) / RFU VCAN (11748164_a_at) / Fold change /veh VCAN (11748164_a_at) / RFU JSRP1 (11732532_at) / Fold change /veh JSRP1 (11732532_at) / RFU KRTAP10-11 (11738290_x_at) / Fold change /veh KRTAP10-11 (11738290_x_at) / RFU MYO3A (11730013_a_at) / Fold change /veh MYO3A (11730013_a_at) / RFU EBF3 (11725865_a_at) / Fold change /veh EBF3 (11725865_a_at) / RFU CAMK2N1 (11719241_x_at) / Fold change /veh CAMK2N1 (11719241_x_at) / RFU C5orf56 (11738088_a_at) / Fold change /veh C5orf56 (11738088_a_at) / RFU OLFML3 (11715873_a_at) / Fold change /veh OLFML3 (11715873_a_at) / RFU LOC100653217 /// NTM (11731650_a_at) / Fold change /veh LOC100653217 /// NTM (11731650_a_at) / RFU MAPK11 (11762145_a_at) / Fold change /veh MAPK11 (11762145_a_at) / RFU FIZ1 (11724087_x_at) / Fold change /veh FIZ1 (11724087_x_at) / RFU OASL (11726364_x_at) / Fold change /veh OASL (11726364_x_at) / RFU SOX15 (11748057_x_at) / Fold change /veh SOX15 (11748057_x_at) / RFU CD79A (11719716_a_at) / Fold change /veh CD79A (11719716_a_at) / RFU HIST1H1D (11736915_at) / Fold change /veh HIST1H1D (11736915_at) / RFU CASKIN2 (11723855_a_at) / Fold change /veh CASKIN2 (11723855_a_at) / RFU LOC730098 (11760151_x_at) / Fold change /veh LOC730098 (11760151_x_at) / RFU OR4N2 (11742367_at) / Fold change /veh OR4N2 (11742367_at) / RFU PRRT2 (11749266_a_at) / Fold change /veh PRRT2 (11749266_a_at) / RFU SNX32 (11753110_a_at) / Fold change /veh SNX32 (11753110_a_at) / RFU CDHR5 (11726645_a_at) / Fold change /veh CDHR5 (11726645_a_at) / RFU RCAN1 (11760418_a_at) / Fold change /veh RCAN1 (11760418_a_at) / RFU FAM167A (11723789_a_at) / Fold change /veh FAM167A (11723789_a_at) / RFU FAM26E (11764081_at) / Fold change /veh FAM26E (11764081_at) / RFU ISYNA1 (11749810_s_at) / Fold change /veh ISYNA1 (11749810_s_at) / RFU ACY1 (11761880_at) / Fold change /veh ACY1 (11761880_at) / RFU 11764098_at / Fold change /veh 11764098_at / RFU SAMD14 (11745864_x_at) / Fold change /veh SAMD14 (11745864_x_at) / RFU NPB (11741838_a_at) / Fold change /veh NPB (11741838_a_at) / RFU TMPRSS6 (11731388_a_at) / Fold change /veh TMPRSS6 (11731388_a_at) / RFU KRTAP10-2 (11738614_at) / Fold change /veh KRTAP10-2 (11738614_at) / RFU ARHGAP8 /// PRR5-ARHGAP8 (11727945_x_at) / Fold change /veh ARHGAP8 /// PRR5-ARHGAP8 (11727945_x_at) / RFU KRTAP5-7 /// NADSYN1 (11734609_at) / Fold change /veh KRTAP5-7 /// NADSYN1 (11734609_at) / RFU RASL12 (11751679_a_at) / Fold change /veh RASL12 (11751679_a_at) / RFU CDKN2B (11736163_a_at) / Fold change /veh CDKN2B (11736163_a_at) / RFU PRF1 (11729649_at) / Fold change /veh PRF1 (11729649_at) / RFU, ZNF638 /// ZNF638-IT1 / Fold change vs veh, ZNF638 /// ZNF638-IT1 / RFU, PANK3 / Fold change vs veh, PANK3 / RFU, SH3YL1 / Fold change vs veh, SH3YL1 / RFU, ZEB2 / Fold change vs veh, ZEB2 / RFU, NRIP1 / Fold change vs veh, NRIP1 / RFU, PTTG1IP / Fold change vs veh, PTTG1IP / RFU, CAPN2 / Fold change vs veh, CAPN2 / RFU, MED14 / Fold change vs veh, MED14 / RFU, SNORA58 / Fold change vs veh, SNORA58 / RFU, C1orf63 / Fold change vs veh, C1orf63 / RFU, LRRFIP1 / Fold change vs veh, LRRFIP1 / RFU, NDUFAF7 / Fold change vs veh, NDUFAF7 / RFU, SLC12A2 / Fold change vs veh, SLC12A2 / RFU, IBTK / Fold change vs veh, IBTK / RFU, ESF1 / Fold change vs veh, ESF1 / Fold change vs veh, TMEM50B / RFU, TAOK1 / Fold change vs veh, TAOK1 / RFU, ACBD3 / Fold change vs veh, ACBD3 / RFU, TMA16 / Fold change vs veh, TMA16 / RFU, RWDD3 / Fold change vs veh, RWDD3 / RFU, BCAT1 / Fold change vs veh, BCAT1 / RFU, EDEM3 / Fold change vs veh, EDEM3 / RFU, TMEM33 / Fold change vs veh, TMEM33 / RFU, WDR75 / Fold change vs veh, WDR75 / RFU, AHCTF1 / Fold change vs veh, AHCTF1 / RFU, TFRC / Fold change vs veh, TFRC / RFU, ZDHHC17 / Fold change vs veh, ZDHHC17 / RFU, NOM1 / Fold change vs veh, NOM1 / RFU, ARL8B / Fold change vs veh, ARL8B / RFU, ZBTB11 / Fold change vs veh, ZBTB11 / RFU, TAMM41 / Fold change vs veh, TAMM41 / RFU, KIAA1704 /// LOC100996395 / Fold change vs veh, KIAA1704 /// LOC100996395 / RFU, ING1 / Fold change vs veh, ING1 / RFU, TRMT61B / Fold change vs veh, TRMT61B / RFU, FUBP3 / Fold change vs veh, FUBP3 / RFU, TP53 / Fold change vs veh, TP53 / RFU, TNKS2 / Fold change vs veh, TNKS2 / RFU, ZFP14 / Fold change vs veh, ZFP14 / RFU, ACTR2 / Fold change vs veh, ACTR2 / RFU, PPP3R1 / Fold change vs veh, PPP3R1 / RFU, PIK3R1 / Fold change vs veh, PIK3R1 / RFU, HNRNPA1 / Fold change vs veh, HNRNPA1 / RFU, RNF170 / Fold change vs veh, RNF170 / RFU, ZNF28 / Fold change vs veh, ZNF28 / RFU, RNGTT / Fold change vs veh, RNGTT / RFU, OGT / Fold change vs veh, OGT / RFU, BRD1 / Fold change vs veh, BRD1 / RFU, MARS / Fold change vs veh, MARS / RFU, ZNF655 / Fold change vs veh, ZNF655 / RFU, FAHD1 / Fold change vs veh, FAHD1 / RFU, BDP1 / Fold change vs veh, BDP1 / RFU, LRRCC1 / Fold change vs veh, LRRCC1 / RFU, ARID1A / Fold change vs veh, ARID1A / RFU, ZNF146 / Fold change vs veh, ZNF146 / RFU, ZNF330 / Fold change vs veh, ZNF330 / RFU, GPN3 / Fold change vs veh, GPN3 / RFU, C9orf123 / Fold change vs veh, C9orf123 / RFU, N4BP2L2 / Fold change vs veh, N4BP2L2 / RFU, ARFIP1 / Fold change vs veh, ARFIP1 / RFU, FAM179B / Fold change vs veh, FAM179B / RFU, BCL10 / Fold change vs veh, BCL10 / RFU, UHRF1BP1L / Fold change vs veh, UHRF1BP1L / RFU, BET1 / Fold change vs veh, BET1 / RFU, CNOT2 / Fold change vs veh, CNOT2 / RFU, ZNF268 / Fold change vs veh, ZNF268 / Fold change vs veh, ZNF507 / RFU, DGCR2 / Fold change vs veh, DGCR2 / RFU, WDSUB1 / Fold change vs veh, WDSUB1 / Fold change vs veh, HSP90B1 /// MIR3652 / RFU, ADSS / Fold change vs veh, ADSS / RFU, GK / Fold change vs veh, GK / RFU, ZNF148 / Fold change vs veh, ZNF148 / RFU, TAF9 / Fold change vs veh, TAF9 / RFU, SLC1A5 / Fold change vs veh, SLC1A5 / RFU, SLMO2 / Fold change vs veh, SLMO2 / RFU, ABCC4 / Fold change vs veh, ABCC4 / RFU, LOC101060439 /// RAP1B / Fold change vs veh, LOC101060439 /// RAP1B / RFU, RFX7 / Fold change vs veh, RFX7 / RFU, GTPBP10 / Fold change vs veh, GTPBP10 / RFU, CNEP1R1 / Fold change vs veh, CNEP1R1 / RFU, BIVM-ERCC5 /// ERCC5 / Fold change vs veh, BIVM-ERCC5 /// ERCC5 / RFU, ILF3 / Fold change vs veh, ILF3 / RFU 11762660_at / Fold change /veh 11762660_at / RFU VCAN (11757783_s_at) / Fold change /veh VCAN (11757783_s_at) / RFU DDX43 (11728927_at) / Fold change /veh DDX43 (11728927_at) / RFU KRT8 (11758188_x_at) / Fold change /veh KRT8 (11758188_x_at) / RFU NKD1 (11759106_at) / Fold change /veh NKD1 (11759106_at) / RFU SRD5A1 (11742802_a_at) / Fold change /veh SRD5A1 (11742802_a_at) / RFU TPSAB1 /// TPSB2 (11721975_s_at) / Fold change /veh TPSAB1 /// TPSB2 (11721975_s_at) / RFU GSTM3 (11746129_a_at) / Fold change /veh GSTM3 (11746129_a_at) / RFU IL23R (11737362_x_at) / Fold change /veh IL23R (11737362_x_at) / RFU TMEM51 (11727254_a_at) / Fold change /veh TMEM51 (11727254_a_at) / RFU PIWIL2 (11732686_x_at) / Fold change /veh PIWIL2 (11732686_x_at) / RFU ORM1 (11744905_x_at) / Fold change /veh ORM1 (11744905_x_at) / RFU CCDC152 (11743942_at) / Fold change /veh CCDC152 (11743942_at) / RFU ECM1 (11717891_a_at) / Fold change /veh ECM1 (11717891_a_at) / RFU IL23R (11748794_a_at) / Fold change /veh IL23R (11748794_a_at) / RFU TNFAIP8L3 (11732012_x_at) / Fold change /veh TNFAIP8L3 (11732012_x_at) / RFU MBOAT4 (11741988_at) / Fold change /veh MBOAT4 (11741988_at) / RFU 11764193_at / Fold change /veh 11764193_at / RFU TMEM53 (11763286_at) / Fold change /veh TMEM53 (11763286_at) / RFU MAGEB2 (11727129_at) / Fold change /veh MAGEB2 (11727129_at) / RFU TMEM200A (11744735_a_at) / Fold change /veh TMEM200A (11744735_a_at) / RFU CCDC152 (11751479_a_at) / Fold change /veh CCDC152 (11751479_a_at) / RFU FAM211A (11726209_a_at) / Fold change /veh FAM211A (11726209_a_at) / RFU RGS16 (11746705_a_at) / Fold change /veh RGS16 (11746705_a_at) / RFU VCAN (11755009_s_at) / Fold change /veh VCAN (11755009_s_at) / RFU RHOB (11743442_s_at) / Fold change /veh RHOB (11743442_s_at) / RFU RGS16 (11720943_a_at) / Fold change /veh RGS16 (11720943_a_at) / RFU RGS16 (11720944_at) / Fold change /veh RGS16 (11720944_at) / RFU, VPS4B / Fold change vs veh, VPS4B / RFU, CREB1 / Fold change vs veh, CREB1 / RFU, DNAJC13 / Fold change vs veh, DNAJC13 / RFU, GNAQ / Fold change vs veh, GNAQ / RFU, CDK5R1 / Fold change vs veh, CDK5R1 / RFU, ZRANB3 / Fold change vs veh, ZRANB3 / RFU, CUL4A / Fold change vs veh, CUL4A / RFU, CCNY / Fold change vs veh, CCNY / RFU, UFL1 / Fold change vs veh, UFL1 / RFU, COG3 / Fold change vs veh, COG3 / RFU, DIAPH2 / Fold change vs veh, DIAPH2 / RFU, SKA2 / Fold change vs veh, SKA2 / RFU, AFF3 / Fold change vs veh, AFF3 / RFU, LMF1 / Fold change vs veh, LMF1 / RFU, IPO11 / Fold change vs veh, IPO11 / RFU, DFFB / Fold change vs veh, DFFB / RFU, FOXP1 / Fold change vs veh, FOXP1 / RFU, CARD8 / Fold change vs veh, CARD8 / RFU, STRN3 / Fold change vs veh, STRN3 / RFU, ADK / Fold change vs veh, ADK / RFU, RASSF2 / Fold change vs veh, RASSF2 / RFU, WIPF1 / Fold change vs veh, WIPF1 / RFU, LARP1B / Fold change vs veh, LARP1B / RFU, RASA1 / Fold change vs veh, RASA1 / RFU, RB1 / Fold change vs veh, RB1 / RFU, PPFIA1 / Fold change vs veh, PPFIA1 / RFU, MAT2A / Fold change vs veh, MAT2A / RFU, CCT5 / Fold change vs veh, CCT5 / RFU, WDR92 / Fold change vs veh, WDR92 / RFU, CUX1 / Fold change vs veh, CUX1 / RFU, TTC7A / Fold change vs veh, TTC7A / RFU, TMEM135 / Fold change vs veh, TMEM135 / RFU, DEPTOR / Fold change vs veh, DEPTOR / RFU, CPM / Fold change vs veh, CPM / RFU, DNAJB6 / Fold change vs veh, DNAJB6 / RFU, CACNA2D3 / Fold change vs veh, CACNA2D3 / RFU, DTX4 / Fold change vs veh, DTX4 / RFU, TFCP2 / Fold change vs veh, TFCP2 / RFU, GMCL1 /// GMCL1P1 / Fold change vs veh, GMCL1 /// GMCL1P1 / RFU, AEBP2 / Fold change vs veh, AEBP2 / RFU, SNHG1 /// SNORD22 /// SNORD25 /// SNORD26 /// SNORD27 /// SNORD28 /// SNORD29 /// SNORD31 / Fold change vs veh, SNHG1 /// SNORD22 /// SNORD25 /// SNORD26 /// SNORD27 /// SNORD28 /// SNORD29 /// SNORD31 / Fold change (Aza/veh), C12orf56 (ProbeSet 11735607_a_at) / Fold change (ACY-1035/veh), C12orf56 (ProbeSet 11735607_a_at) / Fold change (Aza/veh), FGFR1OP (ProbeSet 11751329_s_at) / Fold change (ACY-1035/veh), FGFR1OP (ProbeSet 11751329_s_at) / Fold change (Aza/veh), VPS36 (ProbeSet 11739960_a_at) / Fold change (ACY-1035/veh), VPS36 (ProbeSet 11739960_a_at) / RFU SYPL1 (11715823_x_at) / Fold change /veh SYPL1 (11715823_x_at) / RFU IGFBP7 (11715501_s_at) / Fold change /veh IGFBP7 (11715501_s_at) / RFU REEP3 (11722064_at) / Fold change /veh REEP3 (11722064_at) / RFU IGLL1 (11728026_x_at) / Fold change /veh IGLL1 (11728026_x_at): dose or concentration left out as unconfirmed
Details: ProbeSet 11755425_a_at; LIST B

SMILES: Nc1ccc(-c2cccs2)cc1NC(=O)c1ccc2c(c1)cc(C1CC1)n2CCN1CCOCC1 [ACY-1035]
- Fold change vs veh, FAM179B: 1.02
